These results are taken from patent US20080167314A1, “Condensed Imidazole Compound And Use Thereof” (priority 2004, published 2008).

The test system of test [1] is MMP-13 production in human normal articular chondrocytes. The test is described as follows: Measurement of MMP-13 production inhibitory activity in rhIL-1β-stimulated human normal articular chondrocytes (ELISA). It is filed as cell-based. The following applies: Chondrocyte, rhIL-1β 0.1 ng/mL, 24 hr, MMP-13 in culture supernatant by ELISA. The procedure:
Measurement of MMP-13 Production Inhibitory Activity
Human normal articular chondrocytes (Camblex) were grown in a chondrocyte growth medium (CGM: Camblex), and the cells were suspended in a chondrocyte differentiation medium (CDM: Camblex) and plated on a 96 well plate at 2×10^4 cells/well (150 μL/well). After culturing for 3 days under 37° C., 5% CO2 conditions, the culture medium was exchanged to 0.1% BSA added α-modification of Eagle's (α-MEM: Gibco), and the cells were cultured for 4 hr. The compound was added thereto and, after culture for 1 hr, recombinant human IL-1β (rhIL-1β: R&D systems) was added at 0.1 ng/mL. After culture for 24 hr, the culture supernatant was recovered, and the concentration of MMP-13 in the culture supernatant was measured by the ELISA method (Amersham).
For orientation: In an ELISA, binding on a coated surface is turned into a signal by an enzyme label.

Test [2] deals with T1, active form p38 MAP kinase (Homo sapiens, UniProt Q16539).
T1 construct: made in house; host or cells: Sf-21 insect cells, baculovirus BAC-HP38 co-infected with BAC-caMKK3
T1 sequence (Q16539 whole entry): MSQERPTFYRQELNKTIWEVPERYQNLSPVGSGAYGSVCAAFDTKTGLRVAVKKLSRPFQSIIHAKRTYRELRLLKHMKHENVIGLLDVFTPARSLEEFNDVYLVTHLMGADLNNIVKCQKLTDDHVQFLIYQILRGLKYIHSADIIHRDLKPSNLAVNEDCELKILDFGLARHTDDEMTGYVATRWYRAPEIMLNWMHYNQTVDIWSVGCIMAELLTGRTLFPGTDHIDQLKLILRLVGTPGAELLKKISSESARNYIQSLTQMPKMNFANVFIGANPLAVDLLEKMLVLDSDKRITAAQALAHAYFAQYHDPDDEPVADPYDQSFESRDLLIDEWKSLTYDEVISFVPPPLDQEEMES
The test is described as follows: Measurement of the p38 MAP kinase inhibitory activity (32P uptake into Myelin Basic Protein). Type of test: biochemical. As to conditions: 260 ng active form p38 MAP kinase, 1 μg Myelin Basic Protein, 2.5 μM ATP solution, 30° C. for 60 minutes. The procedure: (1) Cloning of Human p38 MAP Kinase Gene and Preparation of Recombinant Baculovirus
Cloning of human p38 MAP kinase gene was performed by a PCR method using a primer set P38-U:
(3) Preparation of Active Form p38 MAP Kinase
The Sf-21 cells were seeded on 100 ml Sf-900II SFM medium (GIBCOBRL) to 1×10^6 cells/mL and cultured at 27° C. for 24 hours. After each 0.2 mL of the virusstock BAC-HP38 of recombinant Baculovirus and BAC-caMKK3 were added, the culturing was further performed for 48 hours. After the cells were separated from the culturing solution by centrifugation (3000 rpm, 10 min), the cells were washed twice with PBS. After the cells were suspended in 10 ml Lysis buffer (25 mM HEPES (pH 7.5), 1% Triton X, 130 mM NaCl, 1 mM EDTA, 1 mM DTT, 25 mM β-glycerophosphate, […], 1 mM APMSF, 1 mM Sodium orthovanadate), the cells were lysed by treating twice with a homogenizer (POLYTRON) at 20000 rpm for 2 minutes. By using Anti-FLAG M2 Affinity Gel (Eastman Chemical), active form p38 MAP kinase was purified from the supernatant obtained by centrifugation (40000 rpm, 45 minutes).
(4) Measurement of the p38 MAP Kinase Inhibitory Activity
2.5 μL of a test compound dissolved in DMSO was added to 37.5 μL reaction solution (25 mM HEPES (pH 7.5), 10 mM Magnesium Acetate) containing 260 ng active form p38 MAP kinase and 1 μg Myelin Basic Protein, which was maintained at 30° C. for 5 minutes. The reaction was initiated by adding 10 μL ATP solution (2.5 μM ATP, 0.1 μCi [g-^32P]ATP). After the reaction was performed at 30° C. for 60 minutes, the reaction was stopped by adding 50 μL 20% TCA solution. After the reaction solution was allowed to stand at 0° C. for 20 minutes, an acid insoluble fraction was transferred to GF/C filter (Packard Japan) using Cell Harvester (Packard Japan) and washed with 250 mM H3PO4. After drying at 45° C. for 60 minutes, […] Microscint 0 (Packard Japan) was added and the radioactivity was measured with a TopCount (Packard Japan). The concentration (IC50 value) necessary for inhibiting uptake of ^32P into an acid insoluble fraction by 50% was calculated with PRISM 2.01 (Graphpad Software).

The subject of test [3] is TNF-α production in THP-1 cells. The test is described as follows: Measurement of TNF-α production inhibitory activity in LPS-stimulated THP-1 cells (ELISA). It is filed as cell-based. As to conditions: Homo sapiens, LPS 5 μg/mL, 4 hours, TNF-α in supernatant by ELISA. The procedure: Measurement of TNF-α Production Inhibitory Activity
After THP-1 cells which had been cultured in PRMI 1640 medium (manufactured by Life Technologies, Inc.) containing 1% non-activated bovine fetal serum (manufactured by Life Technologies, Inc., U.S.A.) and 10 mM HEPES (pH 7.5) was plated on a 96-well plate to 1×10^5 cells/well, 1 μL test compound dissolved in DMSO was added to there. After incubation at 37° C. for 1 hour in a CO2 incubator, LPS (Wako Pure Chemicals) was added to the final concentration 5 μg/mL. After cultured at 37° C. for 4 hours in a CO2 incubator, the supernatant was obtained by centrifugation. The concentration of TNF-α in the supernatant was measured with ELISA (R&D System, Quantikine Kit). The concentration (IC50 value) necessary for inhibiting TNF-α production by 50% was calculated by PRIMS 2.01 (Graphpad Software).

As for `Cc1cc(-c2nc3cccnn3c2-c2ccnc(NC(=O)c3ccc4ncccc4c3)c2)ccc1F` [Example 42-36, N-{4-[2-(4-fluoro-3-methylphenyl)imidazo[1,2-b]pyridazin-3-yl]pyridin-2-yl}-6-quinolinecarboxamide], the half-maximal inhibitory concentration (IC50) (as a rule, the concentration needed to halve the response being measured) is 0.011 µM in test [1], 0.0034 µM in test [2] and 0.0071 µM in test [3].

For `Cc1cc(-c2nc3cccnn3c2-c2ccnc(NC(=O)NCCO)c2)ccc1F` [Example 51-11, N-{4-[2-(4-fluoro-3-methylphenyl)imidazo[1,2-b]pyridazin-3-yl]pyridin-2-yl}-N′-(2-hydroxyethyl)urea], the IC50 stood at 0.064 µM in test [1], 0.007 µM in test [2] and 0.01 µM in test [3].

Consider `Cc1cc(-c2nc3cccnn3c2-c2ccnc(NC(=O)NCCC#N)c2)ccc1F` [Example 51-14, N-(2-cyanoethyl)-N′-{4-[2-(4-fluoro-3-methylphenyl)imidazo[1,2-b]pyridazin-3-yl]pyridin-2-yl}urea], for which the IC50 in test [1] worked out at 0.032 µM; in test [2], 0.0049 µM; in test [3], 0.001 µM.

As for `Cc1cccc(-c2nc3cccnn3c2-c2ccnc(Nc3ccccc3C)c2)c1` [Example Compound 6-10, N-(2-methylphenyl)-4-[2-(3-methylphenyl)imidazo[1,2-b]pyridazin-3-yl]pyridin-2-amine], the IC50 worked out at 0.082 µM in test [1], 0.0026 µM in test [2] and 0.0098 µM in test [3].

On to `Cc1cccc(-c2nc3cccnn3c2-c2ccnc(NC(=O)C3CC3)c2)c1` [Example compound 20-10, N-{4-[2-(3-methylphenyl)imidazo[1,2-b]pyridazin-3-yl]pyridin-2-yl}cyclopropanecarboxamide], for which the IC50 in test [1] was 0.025 µM; in test [2], 0.0097 µM; in test [3], 0.0054 µM.

`Cc1cccc(-c2nc3cccnn3c2-c2ccnc(NC(=O)c3ccc(F)cc3)c2)c1` [Example compound 20-11, 4-fluoro-N-{4-[2-(3-methylphenyl)imidazo[1,2-b]pyridazin-3-yl]pyridin-2-yl}benzamide]: the IC50 is 0.04 µM in test [1], 0.014 µM in test [2] and 0.0038 µM in test [3].

Take `CCNC(=O)Nc1cc(-c2c(-c3ccc(F)c(C)c3)nc3cccnn23)ccn1` [Example compound 28-3, N-ethyl-N′-{4-[2-(4-fluoro-3-methylphenyl)imidazo[1,2-b]pyridazin-3-yl]pyridin-2-yl}urea]: the IC50 in test [1] turned out to be 0.57 µM; in test [2], 0.0079 µM; in test [3] it was 0.045 µM.

Regarding `Cc1cc(-c2nc3cccnn3c2-c2ccnc(NC(=O)NC(C)C)c2)ccc1F` [Example compound 28-5, N-{4-[2-(4-fluoro-3-methylphenyl)imidazo[1,2-b]pyridazin-3-yl]pyridin-2-yl}-N′-isopropylurea], the IC50 in test [1] stood at 0.064 µM; in test [2], 0.014 µM; in test [3], 0.064 µM.
